# Test results reported in PMC11207052, “Synthesis, Biological, and Computational Evaluations of Conformationally Restricted NAD-Mimics as Discriminant Inhibitors of Human NMN-Adenylyltransferase Isozymes” (Pharmaceuticals, 2024).
# Counter-ions that a name gives are not always drawn. Like-named read-outs stand apart in the source and are kept apart here.
# Tests used:
# hNMNAT-3 [1] = biological target: T1, hNMNAT-3 (Homo sapiens, UniProt Q96T66); experiment: NMN adenylyltransferase activity assay (pyrophosphatase-coupled, malachite green), hNMNAT-3; type: biochemical; set-up: key to mode of inhibition (in brackets) towards NMN, hNMNAT-3 / mode of inhibition (in brackets) towards ATP, hNMNAT-3: M, mixed inhibition; C, competitive; U, uncompetitive; conditions: for Ki: inhibitor 30 and 90 µM, ± std. error, αKi in the case of uncompetitive inhibition; for enzyme inhibition in the initial screening, hNMNAT-3: fixed concentration of 0.5 mM inhibitor
# T1 construct: made in house
# T1 sequence (Q96T66 whole entry): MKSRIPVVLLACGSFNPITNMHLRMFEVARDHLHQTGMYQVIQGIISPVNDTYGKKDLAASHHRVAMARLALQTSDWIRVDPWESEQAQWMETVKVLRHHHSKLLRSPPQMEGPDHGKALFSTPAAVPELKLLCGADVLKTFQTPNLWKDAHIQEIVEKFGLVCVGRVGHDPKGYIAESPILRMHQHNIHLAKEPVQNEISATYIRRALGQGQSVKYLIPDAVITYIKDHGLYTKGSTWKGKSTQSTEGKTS
# Source text: (§1) The reaction catalyzed by NMN adenylyltransferase can be represented as NMN + ATP (NAD + PPi). To avoid interference of methyl NAD analogues with NAD-based detection assays, we used a “pyrophosphate-dependent” coupled assay that couples NMNAT activity with inorganic pyrophosphatase (PPase) that hydrolyzes PPi into two molecules of inorganic phosphate (Pi). Phosphate was quantified using a malachite green dye as described. Enzyme purification procedures followed previous reports. The reactions were carried out using a 96-well microplate assay format at room temperature in a total volume of 50 µL per well. The reaction mixtures contained 100 mM Hepes, pH 7.5, 10 mM MgCl2, 0.1 mg/mL bovine serum albumin, and an excess of 4 U/mL of inorganic pyrophosphatase. The hNMNAT concentration, ranging from 3 to 15 nM, was adjusted in different tests to ensure initial velocity conditions (5–10% substrate depletion) while retaining a linear response. An amount of 100 µL of the malachite green reagent was added to each well to stop the reactions. Following a 20–30 min incubation period, the molybdate in the reagent formed a complex with the free phosphate, resulting in full-color development. The phosphate concentration was then quantified by measuring the absorbance at 620 nm using a microplate reader (Biotek Synergy HT) and interpolating these values against a pre-established standard curve. Absorbance from control reactions performed in the absence of hNMNAT were subtracted from absorbances of the respective reactions with the enzyme to account for background hydrolysis. Details for substrate and inhibitor concentration range are given below and in the legend of Figure 2. Assays with the inhibitors were carried out in triplicate, and the percentage of inhibition at each concentration was calculated for the initial screening at 0.5 mM.
# (§2) Values for inhibition constant Ki and α were determined by fitting the data to the rate equation for general mixed model inhibition: V = VmaxS/[Km(1 + I/Ki) + S(1 + I/[…])] using GraphPad Prism software version 7.05, where Vmax and Km are the classic Michaelis–Menten parameters, Ki is the equilibrium dissociation constant for the enzyme-inhibitor complex, S and I are the substrate and the inhibitor concentration, respectively. This model includes competitive, uncompetitive, and noncompetitive inhibition as special cases that the α values can diagnose. Further mechanistic insights into the mode of inhibition were drawn by graphical inspection of the Lineaweaver–Burk plots.
# hNMNAT-1 = biological target: T2, hNMNAT-1 (Homo sapiens, UniProt Q9HAN9); experiment: NMN adenylyltransferase activity assay (pyrophosphatase-coupled, malachite green), hNMNAT-1; type: biochemical; set-up: key to mode of inhibition (in brackets) towards NMN, hNMNAT-1 / mode of inhibition (in brackets) towards ATP, hNMNAT-1: M, mixed inhibition; C, competitive; U, uncompetitive; conditions: for Ki: inhibitor 30 and 90 µM, ± std. error, αKi in the case of uncompetitive inhibition
# T2 construct: made in house
# T2 sequence (Q9HAN9 whole entry): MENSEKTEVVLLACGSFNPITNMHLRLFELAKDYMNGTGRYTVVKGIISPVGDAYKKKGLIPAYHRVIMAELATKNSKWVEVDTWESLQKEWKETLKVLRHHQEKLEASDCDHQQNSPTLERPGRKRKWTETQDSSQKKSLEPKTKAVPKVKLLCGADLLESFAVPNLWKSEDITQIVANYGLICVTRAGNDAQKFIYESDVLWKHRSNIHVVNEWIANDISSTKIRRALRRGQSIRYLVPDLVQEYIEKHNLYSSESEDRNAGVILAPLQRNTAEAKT
# Source text: as §1, §2
# hNMNAT-2 = biological target: T3, hNMNAT-2 (Homo sapiens, UniProt Q9BZQ4); experiment: NMN adenylyltransferase activity assay (pyrophosphatase-coupled, malachite green), hNMNAT-2; type: biochemical; set-up: key to mode of inhibition (in brackets) towards NMN, hNMNAT-2 / mode of inhibition (in brackets) towards ATP, hNMNAT-2: M, mixed inhibition; C, competitive; U, uncompetitive; conditions: for Ki: inhibitor 30 and 90 µM, ± std. error, αKi in the case of uncompetitive inhibition; for enzyme inhibition in the initial screening, hNMNAT-2: fixed concentration of 0.5 mM inhibitor
# T3 construct: made in house
# T3 sequence (Q9BZQ4 whole entry): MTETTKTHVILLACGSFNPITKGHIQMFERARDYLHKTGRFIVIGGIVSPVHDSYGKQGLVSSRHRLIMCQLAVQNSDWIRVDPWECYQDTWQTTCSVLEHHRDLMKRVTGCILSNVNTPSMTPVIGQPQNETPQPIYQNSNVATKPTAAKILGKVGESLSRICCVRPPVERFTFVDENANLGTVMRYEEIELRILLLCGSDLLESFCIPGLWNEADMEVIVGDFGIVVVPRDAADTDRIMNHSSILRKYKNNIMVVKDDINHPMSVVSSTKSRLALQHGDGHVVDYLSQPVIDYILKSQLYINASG
# Source text: as §1, §2
# hNMNAT-3 [2] = biological target: T1, hNMNAT-3; set-up: method as in PMID 16118205, PMID 18336280; conditions: most sensitive isoform; cited from earlier work
# [3] = steady-state kinetic analysis, versus ATP
# [4] = ATP varied, NMN fixed (0.5 mM), read-out: Ki towards ATP, hNMNAT-2
# [5] = NMN varied, ATP fixed (0.5 mM), read-out: Ki towards NMN, hNMNAT-2
# [6] = fixed concentration of 0.5 mM inhibitor
smiles,measurement,setting,value
"C[C@@]1(O)[C@H](O)[C@@H](COP(=O)([O-])OP(=O)(O)OC[C@H]2O[C@@H]([n+]3cccc(C(=O)O)c3)[C@H](O)[C@@H]2O)O[C@H]1n1cnc2c(N)ncnc21 [2′-MeNaAD (3), P^1-[5′-(2′-C-Methyl-β-D-ribofuranosyl)adenine]-P^2-[5′-(β-D-ribofuranosyl)nicotinic acid] Pyrophospshate]","mode of inhibition (in brackets) towards ATP, hNMNAT-3",hNMNAT-3 [1]; ATP varied,C
same,Ki,"hNMNAT-3 [1]; ATP varied, NMN fixed (0.5 mM), read-out: Ki towards ATP, hNMNAT-3",223 ± 22 µM
same,"mode of inhibition (in brackets) towards NMN, hNMNAT-3",hNMNAT-3 [1]; NMN varied,C
same,Ki,"hNMNAT-3 [1]; NMN varied, ATP fixed (0.5 mM), read-out: Ki towards NMN, hNMNAT-3",224 ± 17 µM
same,"mode of inhibition (in brackets) towards ATP, hNMNAT-1",hNMNAT-1; ATP varied,U
same,Ki,"hNMNAT-1; ATP varied, NMN fixed (0.5 mM), read-out: Ki towards ATP, hNMNAT-1",82 ± 14 µM
same,"mode of inhibition (in brackets) towards NMN, hNMNAT-1",hNMNAT-1; NMN varied,C
same,Ki,"hNMNAT-1; NMN varied, ATP fixed (0.5 mM), read-out: Ki towards NMN, hNMNAT-1",168 ± 19 µM
same,"mode of inhibition versus ATP (in words), hNMNAT-1",hNMNAT-1; [3],uncompetitive character
same,"mode of inhibition (in brackets) towards ATP, hNMNAT-2",hNMNAT-2; ATP varied,U
same,Ki,hNMNAT-2; [4],41 ± 14 µM
same,"mode of inhibition (in brackets) towards NMN, hNMNAT-2",hNMNAT-2; NMN varied,M
same,Ki,hNMNAT-2; [5],60 ± 18 µM
same,"mode of inhibition versus ATP (in words), hNMNAT-2",hNMNAT-2; [3],uncompetitive character
O=C(OC[C@H]1O[C@@H](OC(=O)c2cc(O)c(O)c(OC(=O)c3cc(O)c(O)c(O)c3)c2)[C@H](OC(=O)c2cc(O)c(O)c(OC(=O)c3cc(O)c(O)c(O)c3)c2)[C@@H](OC(=O)c2cc(O)c(O)c(OC(=O)c3cc(O)c(O)c(O)c3)c2)[C@@H]1OC(=O)c1cc(O)c(O)c(OC(=O)c2cc(O)c(O)c(O)c2)c1)c1cc(O)c(O)c(OC(=O)c2cc(O)c(O)c(O)c2)c1 [Gallotannin],IC50,hNMNAT-3 [2],2 µM
"C[C@@]1(O)[C@H](O)[C@@H](CO)O[C@H]1n1cnc2c(N)ncnc21 [Compound 11, 2′-MeAdo]","enzyme inhibition in the initial screening, hNMNAT-3",hNMNAT-3 [1],absence of inhibition
same,"enzyme inhibition in the initial screening, hNMNAT-1",hNMNAT-1; [6],absence of inhibition
same,"enzyme inhibition in the initial screening, hNMNAT-2",hNMNAT-2,absence of inhibition
"C[C@@]1(O)[C@@H](COP(=O)(O)O)O[C@@H](n2cnc3c(N)ncnc32)[C@@H]1O [3′-MeAMP (6), 9H-(3′-C-Methyl-β-D-ribofuranosyl)adenine-5′-monophosphate Tributyl Ammonium Salt]","enzyme inhibition in the initial screening, hNMNAT-3",hNMNAT-3 [1],absence of inhibition
same,"enzyme inhibition in the initial screening, hNMNAT-1",hNMNAT-1; [6],absence of inhibition
same,"enzyme inhibition in the initial screening, hNMNAT-2",hNMNAT-2,absence of inhibition
"C[C@@]1(O)[C@H](O)[C@@H](COP(=O)(O)O)O[C@H]1n1cnc2c(N)ncnc21 [2′-MeAMP (5), 9H-(2′-C-Methyl-β-D-ribofuranosyl)adenine-5′-monophosphate Tributyl Ammonium Salt]","enzyme inhibition in the initial screening, hNMNAT-3",hNMNAT-3 [1],absence of inhibition
same,"enzyme inhibition in the initial screening, hNMNAT-1",hNMNAT-1; [6],absence of inhibition
same,"enzyme inhibition in the initial screening, hNMNAT-2",hNMNAT-2,absence of inhibition
"C[C@@]1(O)[C@H](O)[C@@H](COP(=O)([O-])OP(=O)(O)OC[C@H]2O[C@@H]([n+]3cccc(C(N)=O)c3)[C@H](O)[C@@H]2O)O[C@H]1n1cnc2c(N)ncnc21 [2′-MeNAD (1), P^1-[5′-(2′-C-Methyl-β-D-ribofuranosyl)adenine]-P^2-[5′-(β-D-ribofuranosyl)nicotinamide] Pyrophosphate]",inhibition at 500 µM,"hNMNAT-1; fixed concentration of 0.5 mM inhibitor, read-out: enzyme inhibition in the initial screening, hNMNAT-1",< 50%
same,"mode of inhibition (in brackets) towards ATP, hNMNAT-2",hNMNAT-2; ATP varied,M
same,Ki,hNMNAT-2; [4],21 ± 3 µM
same,"mode of inhibition (in brackets) towards NMN, hNMNAT-2",hNMNAT-2; NMN varied,M
same,Ki,hNMNAT-2; [5],15 ± 3 µM
same,"mode of inhibition (in words), hNMNAT-2",hNMNAT-2; steady-state kinetic analysis,mixed-type inhibition with a strong non-competitive character
"C[C@@]1(O)[C@@H](CO)O[C@@H](n2cnc3c(N)ncnc32)[C@@H]1O [Compound 12, 3′-MeAdo]","enzyme inhibition in the initial screening, hNMNAT-3",hNMNAT-3 [1],absence of inhibition
same,"enzyme inhibition in the initial screening, hNMNAT-1",hNMNAT-1; [6],absence of inhibition
same,"enzyme inhibition in the initial screening, hNMNAT-2",hNMNAT-2,absence of inhibition
